# Test results from the supplement of paper PMC10307832.
# What was measured:
# Assay in all cases: relative viability (nuclei count vs DMSO), 5 days (fraction); higher = more cells survive
# [1] = compound: C[C@@H](C(=O)N[C@@H](C1CCCCC1)C(=O)N2CCC[C@H]2C(=O)N[C@@H]3[C@@H](CC4=CC=CC=C34)OCC#CC#CCO[C@@H]5CC6=CC=CC=C6[C@@H]5NC(=O)[C@@H]7CCCN7C(=O)[C@H](C8CCCCC8)NC(=O)[C@H](C)NC)NC [AZD5582] + Cc1cc(Nc2cc(N3CCN(C)CC3)nc(Sc3ccc(NC(=O)C4CC4)cc3)n2)n[nH]1 [Tozasertib] (partner 0.1 µM)
# Outline: (§1)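 One day after seeding in 1536-well plates, lung cancer cell lines were dosed by pin tool. Dosing was either single-drug or a fixed anchor-drug dose plus five library-drug doses (not always all listed) in √10 steps. After 5 days, nuclei were stained in one fix-and-stain step and counted on 4× images, and relative viability is the nuclei count of treated wells over that of vehicle wells, given as the median of duplicate plates.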
# [2] = compound: Cn1nnc2c(C(N)=O)ncn2c1=O [Temozolomide] + CC1(C)CCC(c2ccc(Cl)cc2)=C(CN2CCN(c3ccc(C(=O)NS(=O)(=O)c4ccc(N[C@H](CCN5CCOCC5)CSc5ccccc5)c(S(=O)(=O)C(F)(F)F)c4)cc3)CC2)C1 [Navitoclax] (partner 0.5 µM)
# Outline: as §1
# [3] = compound: Cn1nnc2c(C(N)=O)ncn2c1=O [Temozolomide] + C[C@]1(O)C[C@@H](c2nc(-c3ccc4ccc(-c5ccccc5)nc4c3)c3c(N)nccn32)C1 [Linsitinib] (partner 1 µM)
# Outline: as §1
# [4] = compound: Cn1nnc2c(C(N)=O)ncn2c1=O [Temozolomide] + CC(=O)c1c(C)c2cnc(Nc3ccc(N4CCNCC4)cn3)nc2n(C2CCCC2)c1=O [Palbociclib] (partner 0.5 µM)
# Outline: as §1
Cell Line,relative viability ([1]; first compound 0.01581 µM),relative viability ([1]; first compound 0.05 µM),relative viability ([2]; first compound 0.2 µM),relative viability ([2]; first compound 0.6325 µM),relative viability ([2]; first compound 2 µM),relative viability ([2]; first compound 6.325 µM),relative viability ([2]; first compound 20 µM),relative viability ([3]; first compound 0.2 µM),relative viability ([3]; first compound 0.6325 µM),relative viability ([3]; first compound 2 µM),relative viability ([3]; first compound 6.325 µM),relative viability ([3]; first compound 20 µM),relative viability ([4]; first compound 0.2 µM),relative viability ([4]; first compound 0.6325 µM),relative viability ([4]; first compound 2 µM),relative viability ([4]; first compound 6.325 µM),relative viability ([4]; first compound 20 µM),relative viability ([1]; first compound 0.001581 µM),relative viability ([1]; first compound 0.005 µM)
RERF-LC-KJ,0.431,0.259,1.04,0.884,0.928,0.951,1.06,0.928,0.888,0.948,0.982,0.868,1.02,1.1,1.11,1.17,1.02,–,–
NCI-H2228,0.333,0.161,0.921,1.43,0.951,0.857,1.26,0.794,0.705,0.693,0.636,0.822,0.918,1.03,0.809,0.798,0.614,0.191,0.27
SW 1573,0.164,0.255,0.993,1.03,1.05,1,0.935,0.74,0.738,0.737,0.579,0.659,0.502,0.44,0.467,0.4,0.429,0.188,0.192
NCI-H1792,–,–,0.852,0.773,0.655,0.577,0.616,0.363,0.586,0.498,0.475,0.481,0.569,0.654,0.638,0.663,0.619,–,–
ChaGo-K-1,0.208,0.215,1.11,1.16,1.45,0.968,0.964,–,–,–,–,–,1.05,0.967,0.967,0.873,0.917,0.242,0.231
NCI-H1650,0.389,0.304,1.39,1.33,1.08,1.28,0.974,–,–,–,–,–,0.339,0.406,0.362,0.355,0.28,0.358,0.326
HARA,0.13,0.0952,1.19,1.17,1.24,1.13,1.2,0.593,0.985,1.09,0.933,0.863,–,0.307,0.303,0.302,0.233,0.0907,0.117
SW 900,0.722,0.468,–,–,–,–,–,–,–,–,–,–,0.598,0.612,0.556,0.559,0.468,0.481,0.365
NCI-H520,0.544,0.51,1.13,1.09,1.15,1.12,1.01,1.03,0.904,0.98,0.941,1.04,0.215,0.225,0.228,0.278,0.243,0.441,0.394
ABC-1,0.196,0.166,–,–,–,–,–,0.899,0.83,0.943,0.716,0.771,0.639,0.777,0.707,0.65,0.65,0.157,0.169
